Consider 2 compounds from article PMC10141516 (Pharmaceutics, 2023).

A short description of the data set: Apparent solubility test (USP <1236>). The note with it: for solubility: 20 °C, thermodynamic from solid; for apparent solubility, USP <1236> term: other solvents (water, pH 1.2 to 12.0 buffers). The procedure:
Then, 200 μL of each solvent was added and stirred at 400 rpm. The temperature of the sample was maintained at 20 ± 2 °C. After shaking for 30 s every 5 min, 200 μL of each solvent was added until no particles of the API were visible. The apparent solubility of the two main components was estimated through the point at which all of the API dissolved and became clear.

Structures are written as SMILES.

The solubility is the dissolved amount per volume that the medium holds.

On to `N[C@@H](CC(=O)N1CCn2c(nnc2C(F)(F)F)C1)Cc1cc(F)c(F)cc1F.O.O=P(O)(O)O` [Sitagliptin, (R)-3-Amino-1-(3-(trifluoromethyl)-5,6-dihydro-[1,2,4]triazolo[4,3-a]pyrazin-7(8H)-yl)-4-(2,4,5-trifluorophenyl)butan-1-one phosphate monohydrate], for which the “apparent solubility, USP <1236> term” value is “soluble”. Under “organic solvent or mixture”, the solubility is less than 0.1 mg/mL. Also, the solubility (pH 1.2, aqueous buffer) lay in the range of 1 to 10 mg/mL. For the same compound, the solubility (pH 2, aqueous buffer) was in the range of 1 to 10 mg/mL. Moreover, the solubility (pH 3, aqueous buffer) fell in the range of 1 to 10 mg/mL. Besides, the solubility (pH 4, aqueous buffer) fell in the range of 1 to 10 mg/mL. Further, where the note is “pH 5, aqueous buffer”, the solubility fell in the range of 1 to 10 mg/mL. Moreover, the solubility (pH 6, aqueous buffer) is 1 to 10 mg/mL. The solubility (pH 6.8, aqueous buffer) was in the range of 1 to 10 mg/mL. Also, the solubility (pH 7, aqueous buffer) was in the range of 1 to 10 mg/mL. Further, where the note is “pH 8, aqueous buffer”, the solubility fell in the range of 1 to 10 mg/mL. In addition, the solubility (pH 9, aqueous buffer) fell in the range of 1 to 10 mg/mL. In addition, the solubility (pH 10, aqueous buffer) was 0.1 to 1 mg/mL. Further, where the note is “pH 11, aqueous buffer”, the solubility lay within 1 to 10 mg/mL. For the same compound, the solubility (pH 12, aqueous buffer) lay within 1 to 10 mg/mL. Also, under “water”, the solubility is 1 to 10 mg/mL.

Consider `CCOc1ccc(Cc2cc([C@@H]3O[C@H](CO)[C@@H](O)[C@H](O)[C@H]3O)ccc2Cl)cc1` [Dapagliflozin, (1S)-1,5-Anhydro-1-C-[4-chloro-3-[(4-ethoxyphenyl)methyl]phenyl]-D-glucitol (S)-propane-1,2-diol (1:1) monohydrate], for which the “apparent solubility, USP <1236> term” value is “very slightly soluble”. The solubility (acetonitrile, organic solvent or mixture) lay in the range of 33 to 100 mg/mL. The solubility (buffer solution, pH 3, aqueous buffer) was in the range of 0.1 to 1 mg/mL. The solubility (buffer solution, pH 4, aqueous buffer) was 0.1 to 1 mg/mL. In addition, the solubility (buffer solution, pH 5, aqueous buffer) lay within 0.1 to 1 mg/mL. Also, the solubility (buffer solution, pH 6, aqueous buffer) fell in the range of 0.1 to 1 mg/mL. Also, under “buffer solution, pH 6.8, aqueous buffer”, the solubility fell in the range of 0.1 to 1 mg/mL. Further, the solubility (buffer solution, pH 7, aqueous buffer) fell in the range of 0.1 to 1 mg/mL. For the same compound, the solubility (buffer solution, pH 8, aqueous buffer) lay in the range of 0.1 to 1 mg/mL. Where the note is “buffer solution, pH 9, aqueous buffer”, the solubility lay within 0.1 to 1 mg/mL. Further, the solubility (buffer solution, pH 10, aqueous buffer) lay within 0.1 to 1 mg/mL. Further, the solubility (buffer solution, pH 11, aqueous buffer) lay in the range of 0.1 to 1 mg/mL. Also, the solubility (deionized water, water) lay within 0.1 to 1 mg/mL. The solubility (ethanol, organic solvent or mixture) lay in the range of 33 to 100 mg/mL. Further, the solubility (methanol, organic solvent or mixture) lay within 100 to 1000 mg/mL. Besides, the solubility (pH 1.2 buffer solution, pH 1.2, aqueous buffer) lay within 0.1 to 1 mg/mL. Moreover, the solubility (pH 2.0 buffer solution, pH 2, aqueous buffer) was 0.1 to 1 mg/mL. The solubility (pH 12.0 buffer solution, pH 12, aqueous buffer) was 0.1 to 1 mg/mL.
